Assay [1] concerns other Rho family GTPases (Rac1, RhoA). Put plainly: Multiplex dose response with Mg, BODIPY-FL-GTP binding. The note with it: in the presence of Mg ions. The procedure:
In experiments including magnesium, six GST-GTPases were assayed simultaneously in a single multiplex (Rac1 wt, Rac1Q61L, RhoA wt, RhoAL63, Cdc42 wt and Cdc42Q61L) and 1 nM BODIPY-FL-GTP binding was measured in the presence or absence of the serial drug dilution series. Each dose response series was run in duplicate.

The test system of assay [2] is Cdc42, Rab2, Rab7, activated Rac1Q61L, Rac1, and H-Ras. Briefly: Multiplexed primary screen, fluorescent GTP binding. The note with it: 10 μM compound. The procedure:
Multiplex screening was performed by measuring GTP-binding activities of six GTPases (Cdc42, Rab2, Rab7, activated Rac1Q61L, Rac1, and H-Ras) simultaneously using special glutathione (GSH) bead sets having varied fluorescence intensities at a fixed wavelength^38. Individual GST-GTPase chimeras were tested against approximately 200,000 small molecules from the Molecular Libraries Small Molecule Repository (MLSMR). Results of fluorescent GTP-binding from the entire primary screen are summarized in the open access Pubchem database as required for projects conducted under the Roadmap Initiative (AID 757-761, 764). […] In total 1877 compounds/194,635 were identified as activators or inhibitors in the primary screen. On the order of 100-500 compounds were found active per GTPase target, enabling an unprecedented, comprehensive evaluation of small molecules active against various Ras-related GTPase family members. Here we report one compound active specifically on Cdc42 and structure activity relationships determined through chemical synthesis.
Multiplex analysis of small GTPases, were performed as we have described previously {Surviladze, 2009}. […] Flow cytometric light scatter and fluorescence emission at 530+/−20 nm (FL1) and 665+/−10 nm (FL8) were collected on a Cyan ADP flow cytometer (Beckman Coulter, Fullerton, Calif.). The resulting time-dependent data (one file per plate) were analyzed using IDLQuery software to determine the compound activity in each well. […] Gating based on FL8 emission distinguishes the beads coated with different proteins, and the median fluorescence per bead population was calculated. […]
For detection of GTP binding to small G-proteins we used bead-based multiplex flow cytometry assay {Surviladze, 2009}. […] Six individual GST-GTPases representative of Rho, Ras and Rab branches of the Ras-related GTPase family (Cdc42 wt, Rac1 wt, Rac1Q61L, Rab2 wt, Rab7 wt, and H-Ras wt) were first bound to GSH-beads of a particular fluorescence intensity. […]

The next assay concerns the target T1, wild-type Cdc42 (Homo sapiens, UniProt P60953).
T1 construct: purchased Cytoskeleton
Briefly: Equilibrium binding assay of BODIPY-FL-GTP. Particulars: 1.5 nM substrate, 1 mM MgCl2; read-out: IC50, inhibition of fluorescent GTP binding to Cdc42 wt. The method, then: Changes in GTP binding affinity (Kd) and Bmax in the presence of a given compound were measured in multiplex (Cdc42, Cdc42Q61L, Rab2, Rab7, H-Ras and H-RasG12V) and single-plex formats (Rac1, Rac1Q61L and GST-GFP). GTPases and the GST-GFP control were individually bound to glutathione beads overnight at 4° C., washed with HPSE buffer, then resuspended together or assayed individually in the same buffer containing DTT and BSA. Bound GTPases were analyzed by mixing 5 μl protein-bound beads with 2.5-100 nM BODIPY-GTP in a total volume of 10 μl and incubating with rotation at 4° C. for 90 min. DMSO controls and samples treated with 10 μM of each test compound were run in parallel. Bound fluorescent nucleotide was measured using a Cyan ADP flow cytometer. Data were converted to ASCII format using IDLeQuery, exported and analyzed using Prism (GraphPad Software, Inc., San Diego, Calif.) non-linear, one-site binding.
Wild-type GST-Cdc42 (4 μM) was bound to GSH-beads overnight at 4° C. Cdc42 on GSH-beads was depleted of nucleotide by incubating with 10 mM EDTA containing buffer for 20 min at 30° C., washing twice with NP-HPS buffer, then re-suspended in the same buffer containing 1 mM EDTA/or 1 mM MgCl2, 1 mM DTT and 0.1% BSA. […] Samples incubated at 4° C. for 45 min and binding of fluorescent nucleotide to enzyme measured using an Accuri flow cytometer. […]

Structures are written as SMILES.

T1 sequence (P60953 whole entry): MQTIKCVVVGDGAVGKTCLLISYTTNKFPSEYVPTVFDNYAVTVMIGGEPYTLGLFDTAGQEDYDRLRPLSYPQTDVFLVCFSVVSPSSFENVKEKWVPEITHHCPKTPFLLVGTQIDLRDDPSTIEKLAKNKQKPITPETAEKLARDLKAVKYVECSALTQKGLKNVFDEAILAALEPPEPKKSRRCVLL

With `COc1ccc(C2CC(c3ccccc3)=NN2c2ccc(S(N)(=O)=O)cc2)cc1` (stereo not drawn) [MLS000693334, 4-[3-(4-methoxyphenyl)-5-phenyl-3,4-dihydropyrazol-2-yl]benzenesulfonamide], the “Effect on activity of other Rho family GTPases” value in assay [1] is recorded as “did not affect activity”. In addition, the “Outcome of primary screening” value in assay [2] was “specific inhibitors”. Besides, the IC50 (commonly the point on the concentration scale where inhibition reaches its midpoint) on wild-type Cdc42 is 200 nM.

The values are drawn from US9642835B2, “Modulators of GTPase and use in relevant treatment” (STC.UNM, priority 2010, dated 2017).
